{"source": "paper PMC5319851", "about": "(Bioorganic & medicinal chemistry, 2016)", "data": [{"system": "HsMetAP1", "conditions": "read-out: HsMetAP1 IC50; cited from earlier work", "units": {"IC50": "µM"}, "values": [{"smiles": "CC(C)(C)c1ccc(CSc2nnc(N)[nH]2)cc1", "note": "[Compound 19]", "IC50": "> 15"}, {"smiles": "Cc1ccc2cccc(O)c2n1", "note": "[Compound 20, 2-methyl-8-quinolinol]", "IC50": "> 15"}]}, {"system": "HsMetAP2", "conditions": "read-out: HsMetAP2 IC50; cited from earlier work", "units": {"IC50": "µM"}, "values": [{"smiles": "CC(C)(C)c1ccc(CSc2nnc(N)[nH]2)cc1", "note": "[Compound 19]", "IC50": "> 15"}, {"smiles": "Cc1ccc2cccc(O)c2n1", "note": "[Compound 20, 2-methyl-8-quinolinol]", "IC50": "2.03 ± 0.3"}]}, {"system": "primary pulmonary vascular endothelial cells (ECs)", "conditions": "not given", "values": [{"smiles": "Nc1n[nH]c(SCc2ccccc2Cl)n1", "note": "[Compound 15]", "Host EC metabolism (WST-1) of uninfected ECs": "stimulated EC metabolism"}, {"smiles": "Nc1nnc(SCc2ccc(Cl)cc2)[nH]1", "note": "[Compound 16]", "Effect of compound alone on appearance of EC monolayers": "no overt effect on the appearance of the monolayers", "Host EC metabolism (WST-1) of uninfected ECs": "stimulated EC metabolism"}, {"smiles": "Nc1n[nH]c(SCc2ccccc2)n1", "note": "[Compound 12]", "Host EC metabolism (WST-1) of uninfected ECs": "stimulated EC metabolism"}]}, {"target": "RpMetAP1 (Rickettsia prowazekii, UniProt Q9ZCD3)", "sequence (Q9ZCD3 whole entry, looked up)": "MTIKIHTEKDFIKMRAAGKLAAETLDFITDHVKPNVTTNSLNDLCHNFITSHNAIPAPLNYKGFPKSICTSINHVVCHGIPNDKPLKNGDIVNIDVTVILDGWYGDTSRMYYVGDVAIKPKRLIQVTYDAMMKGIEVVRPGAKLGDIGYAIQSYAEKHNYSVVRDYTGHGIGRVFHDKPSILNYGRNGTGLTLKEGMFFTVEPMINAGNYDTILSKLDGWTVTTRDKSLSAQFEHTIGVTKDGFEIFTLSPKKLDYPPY", "conditions": "not given", "values": [{"smiles": "Cc1cccc(-c2ccc(C(=O)O)o2)c1", "note": "[Compound 9]", "Hill Slope (furoic acid species)": "1.0 ± 0.1"}, {"smiles": "Cc1ccc(-c2ccc(C(=O)O)o2)cc1", "note": "[Compound 5]", "Hill Slope (furoic acid species)": "1.0 ± 0.1"}, {"smiles": "O=C(O)c1ccc(-c2ccc(Br)cc2)o1", "note": "[Compound 7]", "Hill Slope (furoic acid species)": "1.0 ± 0.1"}, {"smiles": "O=C(O)c1ccc(-c2cccc([N+](=O)[O-])c2)o1", "note": "[Compound 2]", "Hill Slope (furoic acid species)": "1.0 ± 0.1"}, {"smiles": "Oc1c(CN2CCOCC2)cc(Cl)c2cccnc12", "note": "[Compound 24]", "Hill Slope (quinolinol species)": "1.5 ± 0.1"}, {"smiles": "O=C(O)c1ccc(-c2cccc(C(F)(F)F)c2)o1", "note": "[Compound 3]", "Hill Slope (furoic acid species)": "1.0 ± 0.1"}, {"smiles": "O=[N+]([O-])c1cc(CN2CCOCC2)c(O)c2ncccc12", "note": "[Compound 26]", "Hill Slope (quinolinol species)": "1.0 ± 0.1"}, {"smiles": "O=[N+]([O-])c1ccc(O)c2ncccc12", "note": "[Compound 23, nitroxoline, reference compound]", "Hill Slope (quinolinol species)": "1.7 ± 0.5"}, {"smiles": "O=C(O)c1ccc(-c2ccccc2C(F)(F)F)o1", "note": "[Compound 6]", "Hill Slope (furoic acid species)": "2.1 ± 0.1"}, {"smiles": "Cc1ccc2cccc(O)c2n1", "note": "[Compound 20, 2-methyl-8-quinolinol]", "Hill Slope (quinolinol species)": "1.1 ± 0.1"}, {"smiles": "Cc1ccccc1-c1ccc(C(=O)O)o1", "note": "[Compound 8]", "Hill Slope (furoic acid species)": "1.3 ± 0.1"}, {"smiles": "O=C(O)c1ccc(-c2ccccc2)o1", "note": "[Compound 4, 5-phenyl-2-furoic acid]", "Hill Slope (furoic acid species)": "1.0 ± 0.1"}, {"smiles": "Oc1ccc(Cl)c2cccnc12", "note": "[Compound 22, 5-chloro-8-quinolinol]", "Hill Slope (quinolinol species)": "1.9 ± 0.2"}]}]}
